Test results: patent US20220409560A1, “Pharmaceutical Compositions, Formulations And Methods For The Treatment Of Retinoblastoma” (Oxular Limited, priority 2019, published 2022)
Read-outs that look alike come from different tables or passages of the source.

Tests used:
BJ cell line [1] = settings: BJ cell line (normal fibroblast), 72 hour incubation
Y79 cell line = assay: Retinoblastoma cell proliferation inhibition assay (Cell Titer Glo, 72 hour incubation); type: cell-based, human
[2] = system: WERI cell line (WERI-Rb1); assay: as above; type: cell-based, human
[3] = system: Human retinoblastoma tumour cells, Y79; assay: Retinoblastoma in vivo model, retinoblastoma cell area on the retina by histology; parameters: species or system rabbits; settings: for retinoblastoma cell areas from both H&E staining and antibody staining: culled at 5 weeks; for reduction in retinoblastoma cells in the eyes as compared to sham: p<0.01
Experimental: Human retinoblastoma tumour cells, Y79 (ATCC@ HTB-18), were grown in media consisting of RPMI 1640 containing 20% FBS, L-glutamine 200 mM (100×), penicillin/streptomycin 5,000 U/ml and amphotericin B 250 μg/ml, to a target suspension density of 3×10^5 cells/flask in 20 ml of media in a T75 flask. Thirty-two eyes in 16 immunosuppressed rabbits were inoculated with 200,000 cells in 30 μl of serum free media to the posterior retinal surface by intravitreal injection. The animals were studied in 4 groups of 8 eight eyes. Two groups were administered topotecan prepared in 30 μl of sterile saline injected intravitreally through a 29 gauge needle in the posterior region of the vitreous cavity near the tumour cells. One topotecan group was administered a 10 μg dose and a second group administered a 50 μg dose. The topotecan groups were administered the active agent formulation at 2, 3 and 4 weeks after tumour cell inoculation. […] A fourth group was treated with a sham injection of 30 μl sterile saline through a 29 gauge needle in the posterior region of the vitreous near the tumour cells at 2, 3 and 4 weeks after tumour cell inoculation. All animals were culled at 5 weeks to allow processing of the retina and retinoblastoma tumour cells on the retina for histological examination. Macro photography of the flat mounted retinae recorded tumour cell survival on the retinae and then representative sections were removed for fixation and subsequent processing for histology. All samples were cut at 5 μm and stained by H&E and replicate slides stained with human mitochondrial marker antibody to positively identify the human retinoblastoma cells. Slides were then scanned using a slide scanner (Histech or Hamamatsu S360) and retinoblastoma cell area on the retina quantified using CaseViewer software.
Representative histology images are shown in FIG. 4 with arrows indicating the retinoblastoma cells on the retina.

[4] = Ocular pharmacokinetic study, suprachoroidal administration of micelle formulation, tissue concentration by LCMS; type: in vivo, New Zealand White rabbits; settings: 25 μg dose, micellular formulation, rabbit
Text: Both solutions were filter sterilized by passage through a sterile 0.2 micron nylon syringe filter into a sterile vial to produce a sterile formulation. The mixture was vortex mixed to produce a micelle suspension. […] A flexible catheter with 250 micron OD and 140 micron ID was surgically introduced into the suprachoroidal space in the anterior region of the eye at the pars plana. The catheter was advanced posteriorly toward the posterior region of the suprachoroidal space. The catheter was configured to conduct light and provided illumination of the catheter tip and shaft to determine the catheter position and configuration by trans-scleral visualization. The illuminated tip of the catheter was used to position the catheter in the posterior region of the suprachoroidal space. The illuminated shaft of the catheter was used to manipulate and position the catheter to direct the injection toward the posterior region of the space. […] The eyes were examined by slit lamp in the anterior segment and by indirect ophthalmoscopy in the posterior segment prior to euthanasia for each time point at 1, 3, 7, 14 days post administration.

BJ cell line [5] = assay: cells; settings: Homo sapiens, 72 h

Cc1cc2c(C(=O)NC[C@H](C)c3ccccc3)c(O)c(O)cc2c(O)c1-c1c(C)cc2c(C(=O)NC[C@H](C)c3ccccc3)c(O)c(O)cc2c1O [Sabutoclax]
EC50 (BJ cell line [1]): > 3650 nM | EC50 (Y79 cell line): 316 nM | EC50 [2]: 211 nM

CC(C)c1ccccc1Cc1cc(C(=O)Nc2ccc(S(=O)(=O)c3ccccc3C(C)(C)C)cc2)c(O)c(O)c1O [TW-37]
EC50 (BJ cell line [1]): > 8760 nM | EC50 (Y79 cell line): 335 nM | EC50 [2]: 278 nM | retinoblastoma cell areas from both H&E staining and antibody staining ([3]; 10 μg in DMSO intravitreal at 3 and 4 weeks after inoculation): lower compared to sham | reduction in retinoblastoma cells in the eyes as compared to sham ([3]; 10 μg intravitreal at 3 and 4 weeks): statistically significant reduction | choroid concentration at 14 days [4]: near baseline | level of TW-37 in the vitreous [4]: relatively low levels | retina concentration at 14 days [4]: near baseline | time of peak concentration in the choroid [4]: 3 days | time of peak concentration in the retina [4]: 7 days | tissue exposure of TW-37 to the target retina after a single administration [4]: 14 days

CC[C@@]1(O)C(=O)OCc2c1cc1n(c2=O)Cc2cc3c(CN(C)C)c(O)ccc3nc2-1 [Topotecan]
EC50 (Y79 cell line; Homo sapiens): 69 nM | EC50 ([2]; Homo sapiens): 39 nM | EC50 (BJ cell line [5]): > 2570 nM | retinoblastoma cell areas from both H&E staining and antibody staining ([3]; 10 μg intravitreal at 2, 3 and 4 weeks after inoculation): lower compared to sham | retinoblastoma cell areas from both H&E staining and antibody staining ([3]; 50 μg intravitreal at 2, 3 and 4 weeks after inoculation): lower compared to sham | reduction in retinoblastoma cells in the eyes as compared to sham ([3]; high dose (50 μg) intravitreal): statistically significant reduction

O=C(CCCCCCC(=O)Nc1ccccc1)NO [Vorinostat]
EC50 (BJ cell line [5]): > 54400 nM
